pEC50: −log10 of the molar value. Read-outs that look alike come from different tables or passages of the source. One block for each compound: values may come before it.
Legend:
Pf (3D7) = test: Ligand efficiency metrics (LE, LLE, LELP), selectivity and fold changes; design: species or system Plasmodium falciparum; settings: for drop in potency: Pf (3D7), relative to the comparator compound of the sentence
MRC-5 cell line = test: Mammalian cell growth inhibition counter-screen (resazurin); format: cell-based, human; settings: Homo sapiens, MRC5; supplementary csv; read-out: Hs MRC-5 EC50
Procedure: (§1) Plasmodium falciparum screening
(§2) Assays against P. falciparum were conducted as previously described.1 Cultures of the widely-used malaria reference strain of chloroquine-sensitive Plasmodium falciparum strain 3D7 were maintained in a 5% suspension of human red blood cells (obtained from East of Scotland Blood Transfusion Service, Ninewells Hospital, Dundee) cultured in RPMI 1640 medium (pH 7.3) supplemented with 0.5% Albumax II (Gibco Life Technologies, San Diego, CA), 12 mM sodium bicarbonate, 0.2 mM hypoxanthine and 20 mg/L gentamicin at 37°C, in a humidified atmosphere of 1% O 2, 3% CO2 with a balance of nitrogen. Growth inhibition was quantified using a fluorescence assay utilising the binding of SYBR green to double stranded DNA, which emits a fluorescent signal at 528 nm after excitation at 485nm.2 Mefloquine (potency range 30-60 nM) was used as a drug control to monitor the quality of the assay (Z’ = 0.6 to 0.8, Signal to background >3, where Z’ is a measure of the discrimination between the positive and negative controls on a screen plate). A 96-well [3H]-Hypoxanthine incorporation assay was also developed as a secondary assay in order to validate compounds from the initial screen in an orthogonal platform.3 Compound bioactivity from both assays was expressed as […]
(§3) P. falciparum (panel of resistant strains) in vitro assay. (Swiss TPH)
(§4) All Plasmodium strains were cultured according to Trager and Jensen and are described at www.beiresources.org (resistant strains: K1, W2, 7G8, TM90C2A, D6 and V1/S, sensitive strain:
(§5) NF54). EC50 values were determined in vitro by measuring incorporation of the nucleic acid precursor […]
(§6) Mammalian Cell Growth Inhibition assay
(§7) A counter-screen against normal diploid human fibroblasts (MRC-5 cell line) was carried out to exclude non-selective, and toxic compounds. The assay was essentially carried out as described previously.4 Cells were plated and incubated overnight to allow them to adhere as monolayers. A working stock of each test compound was transferred to an intermediate 384-well plate and pre-diluted with minimum essential media (MEM). The pre-diluted stocks were then transferred onto the cell monolayers, and the plates were incubated for 68 h. Resazurin, to a final concentration of 50 μM, was added to each well, after which plates were incubated for a further 3 h and measured for fluorescence (λex=528 nm, λem=590 nm)
(§8) In vitro Cell Assay Data Analysis.
(§9) All data was processed using IDBS ActivityBase® raw data was converted into per cent inhibition through linear regression by setting the high inhibition control as 100% and the no inhibition control as 0%. Quality control criteria for passing plates were as follows: Z’> 0.5, S:B> 3, %CV(no inhibition < 15 . The formula used to calculate Z’ is 1 3× (St D e v _ hi gh + St D e v _ low) . […]
(§10) All EC50 Curve fitting was undertaken using XLFit version 4.2 using Model 205 with the following 4 parametric equation: y = A + B A A + ($-&) ,where A=% inhibition at bottom, B=% […]
(§11) inhibition at top, C= EC50, D= slope, x= inhibitor concentration and y= % inhibition. […]
(§12) reach 100% of inhibition, B was fixed to 100 only when at least 50% of inhibition was reached.
(§13) Plasmodium falciparum late stage (IV-V) gametocyte high content imaging assay Plasmodium falciparum NF54-pfs16-LUC-GFP stage IV-V Gametocytes were produced as described previously.5 Compounds were solubilized in DMSO and serially diluted in three concentrations per log standard curves in DM SO. One µl of compound was subsequently diluted in 25µl of water (4% DMSO) and 5µl transferred into the base of 384 well PerkinElmer CellCarrier plates. Forty-five µl of stage IV-V gametocytes (10%P in 0.1%H) were added to the imaging plates which were in turn sealed with a gas permeable membrane and incubated at 37°C, 5% CO 2, 5% O2, 90% N2 and 60% humidity […]
(§14) Post incubation, 5µl of MitoTracker® Red CM -H2Xros (MTR) solution (0.66ug/ml) was added to all wells and the plates incubated for a further 16hours. […]

[1] = tested on: Plasmodium falciparum strain 3D7; test: Plasmodium falciparum screening, SYBR green growth inhibition; format: cell-based
Procedure: as §1, §2, §3, §4, §5, §6, §7, §8, §9, §10, §11, §12, §13, §14

[2] = Intrinsic clearance (Cli) in mouse liver microsomes; format: in vitro ADME
Source text: as §11, §12, §13
Post incubation, 5µl of MitoTracker® Red CM -H2Xros (MTR) solution (0.66ug/ml) was added to all wells and the plates incubated for a further 16hours. The assay plates were then imaged and the number of viable gametocytes determined for test compounds plus 0.4%DMSO and 5µM Puromycin.
(0.4%DMSO) control values. Percent inhibition was plotted against log compound concentration using a 4 parameter log dose, non-linear regression analysis, with sigmoidal dose response (variable slope) curve fit using Prizm 4.0. IC50 values were obtained from this curve fit. The compound testing was performed in duplicate point within two separate experiments.
Plasmodium berghei ookinete development assay
Assay was performed as previously reported.6 Briefly blood containing P. berghei CTRPp-GFP gametocytes was rapidly harvested from infected mice and introduced to test compounds pre-diluted in ookinete medium (to induce gamete formation and support ookinete development) in 96-well plates. Plates were incubated in the dark at 21°C for 22 hr before GFP fluorescence intensity measured in a plate reader. % inhibition of ookinete formation was calculated with reference to the fluorescence intensity values of a positive control (20 µM cycloheximide) and a solvent-only negative control (DMSO). All assays were performed in triplicate independent experiments and EC50 values calculated in Graphpad Prism.
The aqueous solubility of the test compounds was measured using laser nephelometry, as described previously.7 Compounds were subject to serial dilution from 10 mg/mL to 0.5 mg/mL in DMSO. An aliquot was then mixed with MilliQ water to obtain an aqueous dilution plate with a final concentration range of 100 – 5 μg/mL, with a final DMSO concentration of 1.0%. Triplicate aliquots were transferred to a flat bottomed polystyrene plate which was immediately read on the NEPHELOstar (BMG Lab Technologies). The amount of laser scatter caused by insoluble particulates (relative nephelometry units, RNU) was plotted against compound concentration using a segmental regression fit, with the point of inflection being quoted as the compounds aqueous solubility (μg/mL; […]
Intrinsic Clearance (Cli) experiments
The procedure was carried out as reported previously.7 Test compound (0.5 µM) was incubated with female CD1 mouse, male sprague-dawley rat or pooled human mixed gender liver microsomes (Xenotech LLC TM; 0.5 mg/mL 50 mM potassium phosphate buffer, pH 7.4) and the reaction initiated […]
by the addition of excess NADPH (8 mg/mL 50 mM potassium phosphate buffer, pH 7.4).
Immediately, at time zero, then at 3, 6, 9, 15 and 30 min an aliquot (50 μL) of the incubation mixture was removed and mixed with acetonitrile (100 μL) to stop the reaction. Internal standard was added to all samples, the samples centrifuged to sediment precipitated protein and the plates then sealed prior to UPLC-MS/MS analysis using a Quattro Premier XE (Waters Corporation, USA).
XLfit (IDBS, UK) was used to calculate the exponential decay and consequently the rate constant (k) from the ratio of peak area of test compound to internal standard at each timepoint. The rate of […]

P. berghei ANKA strain = test: In vivo antimalarial efficacy in the P. berghei mouse model (Peter's test); design: species or system Plasmodium berghei in female NMRI mice; settings: 4 × 10 mg/kg oral, once daily; mice cured / mice in group
Procedure: Compound 41 was dosed as a bolus solution intravenously at 1 mg free base/kg (dose volume: 5 mL/kg; dose vehicle: 5% DMSO;saline) or by gavage orally as solution at 3 mg free base/kg (dose volume: 10 mL/kg; Dose vehicle: 0.5% w/v hydroxypropylmethylcellulose with 0.4% v/v Tween 80 and 0.5% v/v benzyl alcohol) to male Sprague Dawley rats (n=3/dose route). Blood samples were taken from each rat at 5, 15, 30 min, 1, 2, 4, 6, 8, 24 and 30 h post-dose, mixed with two volumes of distilled water and stored frozen until UPLC/MS/MS analysis.
Pharmacokinetic parameters were derived from the blood concentration time curve for each compound using PKsolutions software v 2.0 (Summit Research Services, USA).
In vivo antimalarial efficacy studies in P. berghei. (Swiss TPH)
In vivo efficacy was conducted as previously described10 with the modification that female NMRI mice (n = 3) were infected with a GFP-transfected P. berghei ANKA strain (donated by A. P. Waters and C. J. Janse, Leiden University, The Netherlands), and parasitaemia determined (96 h after infection) using standard flow cytometry techniques. Compounds 1, 25, 27, 30 and 49 were prepared in 10% DM SO, 40% PEG 400 and 50% water prior to administration orally, once daily for 4 days.
Compounds 40, 41, 43 and 44 were prepared in a non-solubilizing, standard suspension vehicle called HPMC (0.5% [wt/vol] hydroxypropylmethylcellulose, 0.5% [vol/vol] benzyl alcohol, 0.4% [vol/vol] Tween 80, and 0.9% [wt/vol] sodium chloride in water) prior to administration orally, once daily for 4 days. Blood samples were collected on day 4 (96 h after infection) in two volumes water. Animals […]
and then hourly up to 4 h after dosing each day. The animals were selected randomly for each group

[3] = Mammalian cell growth inhibition counter-screen (resazurin); format: cell-based, human; settings: human, MRC-5 cells (normal diploid human fibroblasts)
Procedure: as §1, §2, §3, §4, §5, §6, §7, §8, §9, §10, §11, §12, §13, §14

[4] = 3D7, supplementary csv, read-out: Pf (3D7) EC50

LLE (ligand-lipophilicity efficiency) (Pf (3D7)): 4.2
Compound: O=C(NCCN1CCCC1)c1cc(N2CCC(N3CCOCC3)CC2)nc2ccc(Cl)cc12 [Compound 24, 6-Chloro-2-(4-morpholinopiperidin-1-yl)-N-(2-(pyrrolidin-1-yl)ethyl)quinoline-4-carboxamide]

Compound: O=C(NCCN1CCC(F)CC1)c1cc(NCCCN2CCOCC2)nc2ccc(F)cc12 [Compound 31]
pEC50 (MRC-5 cell line): 4.39

Compound: O=C(NCCN1CCC(F)(F)CC1)c1cc(NCCCN2CCOCC2)nc2ccc(F)cc12 [Compound 33]
pEC50 (MRC-5 cell line): < 4.30

pEC50 [1, 4]: 8.62
MLM Cli ([2]; mouse liver microsome): 2 mL min^–1 g^–1
Compound: O=C(NCCNC1CC1)c1cc(-c2ccc(CN3CCOCC3)cc2)nc2ccc(F)cc12 [Compound 48, N-(2-(Cyclopropylamino)ethyl)-6-fluoro-2-(4-(morpholinomethyl)phenyl)quinoline-4-carboxamide]

LLE (ligand-lipophilicity efficiency) (Pf (3D7)): 3.2
Compound: Cc1ccc(-c2cc(C(=O)NCCN3CCCC3)c3cc(F)ccc3n2)cc1 [Compound 19]

LLE (ligand-lipophilicity efficiency) (Pf (3D7)): 2.6
Compound: Cc1ccc(-c2cc(C(=O)Nc3cccnc3)c3cc(Br)ccc3n2)cc1 [Compound 1]

Compound: O=C(NCCN1CCOCC1)c1cc(NCCCN2CCOCC2)nc2ccc(F)cc12 [Compound 32]
pEC50 (MRC-5 cell line): < 4.30

Compound: Cc1ccc(-c2cc(C(=O)NCCN3CCCCC3)c3cc(Cl)ccc3n2)cc1 [Compound 17]
pEC50 (MRC-5 cell line): 5.13

MLM Cli ([2]; mouse liver microsomes): < 0.5 mL/min/g
Compound: O=C(NCCN1CCCC1)c1cc(NCCN2CCOCC2)nc2ccc(F)cc12 [Compound 26, 6-Fluoro-2-((3-morpholinoethyl)amino)-N-(2-(pyrrolidin-1-yl)ethyl)quinoline-4-carboxamide]

MLM Cli ([2]; mouse liver microsome): <0.5 mL min^–1 g^–1
Compound: O=C(NCCN1CCOCC1)c1cc(-c2ccc(CN3CCOCC3)cc2)nc2ccc(F)cc12 [Compound 46]
drop in potency (Pf (3D7)): 12 fold

Compound: O=C(NCCN1CCC1)c1cc(-c2ccc(CN3CCOCC3)cc2)nc2ccc(F)cc12 [Compound 49, N-(2-(Azetidin-1-yl)ethyl)-6-fluoro-2-(4-(morpholinomethyl)phenyl)quinoline-4-carboxamide]
MLM Cli ([2]; mouse liver microsome): 0.5 mL min^–1 g^–1
cure (P. berghei ANKA strain): 1/3

pEC50 ([1]; 3D7, quality control of the assay, read-out: potency range (drug control)): 7.22 to 7.52
Compound: OC(c1cc(C(F)(F)F)nc2c(C(F)(F)F)cccc12)C1CCCCN1 (stereo not drawn) [Mefloquine, reference compound]

Compound: Cc1cc(Nc2cc(C(=O)NCCN3CCCC3)c3cc(F)ccc3n2)on1 [Compound 20]
EC50 at 68 h [3]: > 50 µM

pEC50 [1, 4]: 4.98
Compound: O=C(NCCN1CCCC1)c1cc(-c2cccc(CN3CCOCC3)c2)nc2ccc(F)cc12 [Compound 45]

Compound: O=C(NCCN1CCCC1)c1cc(N2CCn3ccnc3C2)nc2ccc(F)cc12 [Compound 22, 2-(5,6-Dihydroimidazo[1,2-a]pyrazine-7(8H)-yl)-6-fluoro-N-(2-(pyrrolidin-1-yl)ethyl)quinoline-4-carboxamide]
EC50 at 68 h [3]: > 50 µM

Compound: O=C(NCCN1CCCC(F)(F)C1)c1cc(NCCCN2CCOCC2)nc2ccc(F)cc12 [Compound 34]
pEC50 (MRC-5 cell line): < 4.30

MLM Cli ([2]; mouse liver microsome): <0.5 mL min^–1 g^–1
Compound: CN(CCN1CCCC1)C(=O)c1cc(-c2ccc(CN3CCOCC3)cc2)nc2ccc(F)cc12 [Compound 47, 6-Fluoro-N-methyl-2-(4-(morpholinomethyl)phenyl)-N-(2-(pyrrolidin-1-yl)ethyl)quinoline-4-carboxamide]
drop in potency (Pf (3D7)): 87 fold

Compound: O=C(NCCN1CCCC1)c1cc(-c2ccc(C(=O)N3CCOCC3)cc2)nc2ccc(F)cc12 [Compound 39, 6-Fluoro-2-(4-(morpholine-4-carbonyl)phenyl)-N-(2-(pyrrolidin-1-yl)ethyl)quinoline-4-carboxamide]
EC50 at 68 h [3]: > 50 µM

Compound: Cc1ccc(-c2cc(C(=O)NCCCN(C)C)c3cc(Cl)ccc3n2)cc1 [Compound 14, 6-Chloro-N-(3-(dimethylamino)propyl)-2-(p-tolyl)quinoline-4-carboxamide]
pEC50 (MRC-5 cell line): 5.26

Compound: O=C(NCCN1CCC(F)(F)C1)c1cc(NCCCN2CCOCC2)nc2ccc(F)cc12 [Compound 35]
pEC50 (MRC-5 cell line): < 4.30
